Experimental data published in PubChem BioAssay AID248 (DTP/NCI, 2004).
“And” between values parts separate entries of the source, which are not always exact repeats. Identical values can stand only once. Toxic doses and inconclusive results are not listed. No stated cut-off is given here; in the data, active means T/C of 150% or more; inactive means T/C below 125%.

Test system: L1210 leukemia ip in BDF1 mice, survival T/C
Assay: NCI In Vivo Anticancer Drug Screen. Data for tumor model L1210 Leukemia (intraperitoneal) in B6D2F1 (BDF1) mice
Details: endpoint: mean survival time, higher = longer survival
In short: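 Antitumor effect is assessed in tumor-bearing animals. Survival in the compound arm is compared with a vehicle-dosed control arm and expressed as their quotient.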

[1] = dose: 100.0 mg/kg/injection, schedule: Q01DX001 (ip), vehicle: carboxymethylcellulose (CMC)
[2] = dose: 200.0 mg/kg/injection, schedule: Q01DX001 (ip), vehicle: carboxymethylcellulose (CMC)
[3] = dose: 400.0 mg/kg/injection, schedule: Q01DX001 (ip), vehicle: carboxymethylcellulose (CMC)
[4] = dose: 25.0 mg/kg/injection, schedule: Q01DX009 (ip), vehicle: Klucel (hydroxypropylcellulose) (HPC)
[5] = dose: 50.0 mg/kg/injection, schedule: Q01DX009 (ip), vehicle: Klucel (hydroxypropylcellulose) (HPC)
[6] = dose: 100.0 mg/kg/injection, schedule: Q01DX009 (ip), vehicle: Klucel (hydroxypropylcellulose) (HPC)
[7] = dose: 100.0 mg/kg/injection, schedule: Q01DX009 (ip), vehicle: saline with Tween-80
[8] = dose: 200.0 mg/kg/injection, schedule: Q01DX009 (ip), vehicle: saline with Tween-80
[9] = dose: 400.0 mg/kg/injection, schedule: Q01DX009 (ip), vehicle: saline with Tween-80
[10] = dose: 100.0 mg/kg/injection, schedule: Q04DX003 (ip), vehicle: saline with Tween-80
[11] = dose: 200.0 mg/kg/injection, schedule: Q04DX003 (ip), vehicle: saline with Tween-80
[12] = dose: 50.0 mg/kg/injection, schedule: Q01DX001 (ip), vehicle: Klucel (hydroxypropylcellulose) (HPC)
[13] = dose: 100.0 mg/kg/injection, schedule: Q01DX001 (ip), vehicle: Klucel (hydroxypropylcellulose) (HPC)
[14] = dose: 200.0 mg/kg/injection, schedule: Q01DX001 (ip), vehicle: Klucel (hydroxypropylcellulose) (HPC)
[15] = dose: 25.0 mg/kg/injection, schedule: Q04DX003 (ip), vehicle: Klucel (hydroxypropylcellulose) (HPC)
[16] = dose: 50.0 mg/kg/injection, schedule: Q04DX003 (ip), vehicle: Klucel (hydroxypropylcellulose) (HPC)
[17] = dose: 400.0 mg/kg/injection, schedule: Q01DX009 (ip), vehicle: Klucel (hydroxypropylcellulose) (HPC)
[18] = dose: 100.0 mg/kg/injection, schedule: Q04DX003 (ip), vehicle: Klucel (hydroxypropylcellulose) (HPC)
[19] = dose: 200.0 mg/kg/injection, schedule: Q04DX003 (ip), vehicle: Klucel (hydroxypropylcellulose) (HPC)
[20] = dose: 400.0 mg/kg/injection, schedule: Q04DX003 (ip), vehicle: Klucel (hydroxypropylcellulose) (HPC)
[21] = dose: 75.0 mg/kg/injection, schedule: Q01DX001 (ip), vehicle: saline

Measured: T/C

Cn1nc(N)c2nccnc21
inactive: dose: 50.0 mg/kg/injection, schedule: Q01DX009 (ip), vehicle: saline 98 % of control | dose: 100.0 mg/kg/injection, schedule: Q01DX009 (ip), vehicle: saline 104 % of control | dose: 100.0 mg/kg/injection, schedule: Q04DX003 (ip), vehicle: alcohol 100 % of control | dose: 200.0 mg/kg/injection, schedule: Q04DX003 (ip), vehicle: alcohol 98 % of control

O=C1C=CC(=O)N1Cc1ccc[n+](CCC[n+]2cccc(CN3C(=O)C=CC3=O)c2)c1
inactive: [1] 98 % of control | [2] 91 % of control | [3] 96 % of control

COc1ccc(NC(=O)Oc2ccc(C(C)=O)cc2)cc1
inactive: [4] 100 % of control | [5] 94 % of control | [6] 97 % of control and 91 % of control

CC(=O)OC1CCC2(C)C(=CCC3C2CCC2(C)C3CC3C(c4ccccc4F)=NN(c4ccccc4)C32C#N)C1 (centres undefined)
inactive: dose: 100.0 mg/kg/injection, schedule: Q04DX002 (ip), vehicle: Klucel (hydroxypropylcellulose) (HPC) 106 % of control | dose: 200.0 mg/kg/injection, schedule: Q04DX002 (ip), vehicle: Klucel (hydroxypropylcellulose) (HPC) 95 % of control | dose: 400.0 mg/kg/injection, schedule: Q04DX002 (ip), vehicle: Klucel (hydroxypropylcellulose) (HPC) 95 % of control

NNC(=O)CCCCCO
inactive: [7] 102 % of control | [8] 100 % of control | [9] 100 % of control

CC(O)(C(=O)O)c1ccccc1 (centres undefined)
inactive: dose: 75.0 mg/kg/injection, schedule: Q01DX009 (ip), vehicle: other 99 % of control | dose: 100.0 mg/kg/injection, schedule: Q04DX003 (ip), vehicle: saline 100 % of control | dose: 150.0 mg/kg/injection, schedule: Q01DX009 (ip), vehicle: other 94 % of control | dose: 200.0 mg/kg/injection, schedule: Q04DX003 (ip), vehicle: saline 105 % of control | dose: 300.0 mg/kg/injection, schedule: Q01DX009 (ip), vehicle: other 100 % of control | dose: 400.0 mg/kg/injection, schedule: Q04DX003 (ip), vehicle: saline 91 % of control

Cc1c(N)cc([N+](=O)[O-])c(C)c1[N+](=O)[O-]
inactive: dose: 50.0 mg/kg/injection, schedule: Q04DX003 (ip), vehicle: saline with Tween-80 100 % of control | [10] 96 % of control | [11] 100 % of control

O=C(Nc1cccc(CSc2nc3nc[nH]c(=O)c3[nH]2)c1)Oc1ccccc1
inactive: [12] 96 % of control | [13] 91 % of control | [14] 98 % of control

CC1(C)N=C(N)N=C(N)N1c1cccc(Oc2ccc(N)cc2)c1
inactive: [15] 103 % of control | [16] 110 % of control

CN(Cc1ccc(Cl)cc1)C(=O)Nc1cccc(C(F)(F)F)c1
inactive: [4] 96 % of control | [5] 100 % of control | [6] 100 % of control and 90 % of control | [17] 88 % of control

CC(=C=CC(c1ccccc1)(c1ccccc1)c1ccccc1)CC(c1ccccc1)(c1ccccc1)c1ccccc1
inactive: [18] 96 % of control | [19] 95 % of control | [20] 95 % of control

OC(CN1CC1)c1ccccc1 (centres undefined)
inactive: dose: 20.0 mg/kg/injection, schedule: Q01DX009 (ip), vehicle: Klucel (hydroxypropylcellulose) (HPC) 95 % of control | dose: 20.0 mg/kg/injection, schedule: Q04DX003 (ip), vehicle: Klucel (hydroxypropylcellulose) (HPC) 97 % of control | dose: 40.0 mg/kg/injection, schedule: Q01DX009 (ip), vehicle: Klucel (hydroxypropylcellulose) (HPC) 95 % of control | dose: 40.0 mg/kg/injection, schedule: Q04DX003 (ip), vehicle: Klucel (hydroxypropylcellulose) (HPC) 102 % of control | dose: 80.0 mg/kg/injection, schedule: Q04DX003 (ip), vehicle: Klucel (hydroxypropylcellulose) (HPC) 97 % of control

CCOc1cccc(CCC(=O)O)c1
inactive: dose: 100.0 mg/kg/injection, schedule: Q04DX003 (ip), vehicle: gum acacia 105 % of control | dose: 200.0 mg/kg/injection, schedule: Q04DX003 (ip), vehicle: gum acacia 96 % of control | dose: 400.0 mg/kg/injection, schedule: Q04DX003 (ip), vehicle: gum acacia 93 % of control

CC(=O)Nc1cc(Cl)cc2c1-c1c(Cl)cc(Cl)cc1C2
inactive: [6] 92 % of control | [18] 92 % of control | [19] 105 % of control | [20] 105 % of control

Cc1ccc(NC(=O)CCC(=O)O)cc1Cl
inactive: [6] 102 % of control | dose: 200.0 mg/kg/injection, schedule: Q01DX009 (ip), vehicle: Klucel (hydroxypropylcellulose) (HPC) 92 % of control | [17] 89 % of control

Cc1cc(Cl)c([N+](=O)[O-])c(P(=O)(O)O)c1
inactive: [21] 90 % of control | dose: 150.0 mg/kg/injection, schedule: Q01DX001 (ip), vehicle: saline 90 % of control | dose: 300.0 mg/kg/injection, schedule: Q01DX001 (ip), vehicle: saline 96 % of control

COc1ccc(NC(=O)CCc2ccccc2)cc1
inactive: dose: 12.5 mg/kg/injection, schedule: Q01DX001 (ip), vehicle: Klucel (hydroxypropylcellulose) (HPC) 98 % of control | dose: 25.0 mg/kg/injection, schedule: Q01DX001 (ip), vehicle: Klucel (hydroxypropylcellulose) (HPC) 88 % of control | [12] 93 % of control | [13] 86 % of control | [14] 88 % of control | dose: 400.0 mg/kg/injection, schedule: Q01DX001 (ip), vehicle: Klucel (hydroxypropylcellulose) (HPC) 91 % of control

Cc1c(N)ccc2ccccc12
inactive: [15] 94 % of control | [16] 91 % of control | dose: 100.0 mg/kg/injection, schedule: Q01DX001 (ip), vehicle: other 103 % of control | [18] 91 % of control | dose: 200.0 mg/kg/injection, schedule: Q01DX001 (ip), vehicle: other 99 % of control | dose: 400.0 mg/kg/injection, schedule: Q01DX001 (ip), vehicle: other 97 % of control

CC(CNC1CCCCC1)OC(=O)c1ccc(N)cc1 (centres undefined)
inactive: [21] 100 % of control

Clc1ccc(C2=NC(c3ccccc3)N3C2C3c2ccccc2)cc1 (centres undefined)
inactive: dose: 100.0 mg/kg/injection, schedule: Q01DX001 (ip), vehicle: saline with Tween-80 95 % of control | dose: 200.0 mg/kg/injection, schedule: Q01DX001 (ip), vehicle: saline with Tween-80 89 % of control | dose: 400.0 mg/kg/injection, schedule: Q01DX001 (ip), vehicle: saline with Tween-80 89 % of control

c1ccc(CCc2ccncc2)cc1
inactive: [7] 87 % of control | [8] 88 % of control | [9] 86 % of control

CCC/C(C)=N\O
inactive: [10] 102 % of control | [11] 111 % of control | dose: 400.0 mg/kg/injection, schedule: Q04DX003 (ip), vehicle: saline with Tween-80 100 % of control

CC(CO)(CO)N=Cc1cc(Br)ccc1O
inactive: [1] 102 % of control | [2] 100 % of control | [3] 86 % of control

CSc1nc(Cl)nc(SC)n1
inactive: [18] 96 % of control | [19] 96 % of control | [20] 96 % of control

CCC1(C)C(=O)c2ccccc2N(C)C1=O (centres undefined)
inactive: dose: 100.0 mg/kg/injection, schedule: Q04DX002 (ip), vehicle: saline with Tween-80 104 % of control | dose: 200.0 mg/kg/injection, schedule: Q04DX002 (ip), vehicle: saline with Tween-80 104 % of control

CC1(C)N=C(N)N=C(N)N1c1cccc(CCCCCc2ccccc2)c1
inactive: dose: 25.0 mg/kg/injection, schedule: Q01DX001 (ip), vehicle: saline 94 % of control

CC(C)OC(=O)c1cccc2c1-c1ccccc1C2=O
inactive: dose: 100.0 mg/kg/injection, schedule: Q01DX001 (ip), vehicle: saline 92 % of control | dose: 200.0 mg/kg/injection, schedule: Q01DX001 (ip), vehicle: saline 92 % of control | dose: 400.0 mg/kg/injection, schedule: Q01DX001 (ip), vehicle: saline 95 % of control
